Measured values as given in patent US20260191823A1, “PROPHYLACTIC OR THERAPEUTIC AGENT FOR ACUTE KIDNEY INJURY INDUCED BY ANTICANCER AGENT” (KYOWA HAKKO BIO CO., LTD., priority 2022, published 2026).

Assays:
[1] = test system: cisplatin-induced acute kidney injury model animal; assay: Cisplatin-induced acute kidney injury model animal; assay type: in vivo; settings: administration group
[2] = test system: Human proximal renal tubular cells (HK-2); assay: Suppression effect on cisplatin-induced cytotoxicity in renal tubular cells (cell counting kit-8); assay type: cell-based; settings: for suppression of cell death over the tested concentrations: 0.01-100 μM test compound, cisplatin 20 μM for 24 h; for suppression of cell death over the tested concentrations / concentration showing a significant cell death-suppressing effect: FIG. 1; for concentration showing a significant cell death-suppressing effect: 0.5 h pre-treatment with test compound, then cisplatin 20 μM for 24 h
Protocol: Human proximal renal tubular cells (HK-2) were seeded into a 96-well plate containing medium at a density of 5×10^3 cells/well. After confirming that the seeded cells had adhered to the plate, each test compound (GSSSG or Na2S4) was added so that the final concentration was 0 μM, 0.01 μM, 0.02 μM, 0.10 μM, 0.39 μM, 1.56 μM, 6.25 μM, 25 μM, or 100 μM, followed by standing at 37° C. for 0.5 hours. Each test compound was dissolved in PBS and then added.
The supernatant in each well was removed, and the cells were washed with PBS. […] Thereafter, cell viability was evaluated using cell counting kit-8 (Dojindo).
The composition of the medium used in Example 1 was as follows: • D-MEM/Ham's F-12 (FUJIFILM Wako Pure Chemical Corporation)+Penicillin-Streptomycin-Amphotericin B (FUJIFILM Wako Pure Chemical Corporation)+GlutaMAX (Thermo Fisher Scientific)+10% FBS.

[3] = test system: cisplatin-induced renal injury; settings: 5.6 mg/kg intraperitoneal; cited from earlier work
[4] = test system: renal dysfunction caused by administration of cisplatin; settings: 300 mg/kg intraperitoneally; cited from earlier work

| SMILES | elevation of blood urea nitrogen (BUN) level [1] | elevation of serum creatinine (CRE) level [1] | suppression of cell death over the tested concentrations ([2]; HK-2 cells) | concentration showing a significant cell death-suppressing effect ([2]; HK-2 cells) [µM] | cell death-suppressing effect relative to Na2S4 ([2]; HK-2 cells, cisplatin 20 μM, compares 0.1 μM with 100 μM) | number of viable renal tubular cells ([2]; test compound 0.1 μM, cisplatin added, fluorescence images, FIG. 2) | effect on cisplatin-induced renal injury [3] | cisplatin-induced body weight suppression [4] | cisplatin-induced elevated blood urea nitrogen [4] |
| --- | --- | --- | --- | --- | --- | --- | --- | --- | --- |
| N[C@@H](CCC(=O)N[C@@H](CSSSC[C@H](NC(=O)CC[C@H](N)C(=O)O)C(=O)NCC(=O)O)C(=O)NCC(=O)O)C(=O)O [GSSSG, glutathione trisulfide] | could be suppressed | could be suppressed | tendency to suppress cell death in a concentration-dependent manner | 0.1 | about 1000 times | notably higher | – | – | – |
| [Na+].[Na+].[S-]SS[S-] [Na2S4, reference compound] | – | – | tendency to suppress cell death in a concentration-dependent manner | 100 | – | – | effective | – | – |
| CC(C)OC(=O)CNC(=O)C(CS)NC(=O)CCC(N)C(=O)O.O=S(=O)(O)O (centres unmarked) [glutathione monoisopropyl ester sulfate] | – | – | – | – | – | – | – | alleviates | alleviates |
